Measurements reported in the supplement of paper PMC10331698.
± gives the standard deviation of the averaged measurements.

Columns and labels:
Assay in all cases: level (log10 ratio to DMSO vehicle control); higher = higher biomarker level / cell amount than vehicle control
[1] = compound: FC(F)(F)COC(OCC(F)(F)F)OCC(F)(F)F [tris(Trifluoroethoxy)methane]; settings: in DMSO
Method: (§1)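 BioMAP Diversity Plus panel of 12 human primary cell co-culture systems (3C, 4H, LPS, SAg, BT, BF4T, BE3C, CASM3C, HDF3CGF, KF3CT, MyoF, Mphg). Compounds were added 1 h before stimulation and left for 24 h (MyoF 48 h; BT 72 h for soluble read-outs or 6 d for IgG). Biomarkers were read by ELISA, cytotoxicity by SRB, PBMC viability and proliferation by Alamar Blue. Each well value was divided by the mean of 8 DMSO control wells on the same plate and log10 transformed; duplicate blinded samples were tested at 4 concentrations.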

[2] = compound: FC(F)(I)C(F)(F)C(F)(F)C(F)(F)C(F)(F)C(F)(F)I [1,6-Diiodoperfluorohexane]; settings: 6700 nM; in DMSO
Method: as §1

[3] = compound: C=CC(=O)OCC(F)(F)C(F)(F)C(F)(F)C(F)(F)C(F)(F)C(F)(F)C(F)(F)C(F)F [1H,1H,9H-Perfluorononyl acrylate]; settings: in DMSO
Method: as §1

[4] = compound: OCCCC(F)(F)C(F)(F)C(F)(F)C(F)(F)C(F)(F)C(F)(F)C(F)(F)C(F)(F)F [3-(Perfluorooctyl)propanol]; settings: 6700 nM; in DMSO
Method: as §1

[5] = compound: OCCC(F)(F)C(F)(F)C(F)(F)C(F)(F)C(F)(F)C(F)(F)C(F)(F)C(F)(F)F [8:2 Fluorotelomer alcohol]; settings: 6700 nM; in DMSO
Method: as §1

Tetrafluorosuccinic acid = compound: O=C(O)C(F)(F)C(F)(F)C(=O)O [Tetrafluorosuccinic acid]; settings: in DMSO
Method: as §1

[6] = compound: O=P(O)(O)CCC(F)(F)C(F)(F)C(F)(F)C(F)(F)C(F)(F)C(F)(F)F [2-(Perfluorohexyl)ethylphosphonic acid]; settings: in DMSO
Method: as §1

[7] = compound: C=C(C)C(=O)OCC(F)(F)C(F)(F)C(F)(F)F [2,2,3,3,4,4,4-Heptafluorobutyl methacrylate]; settings: in DMSO
Method: as §1

Test System | level (log10) ([1]; 6700 nM) | level (log10) ([1]; 20000 nM) | level (log10) ([1]; 60000 nM) | level (log10) [2] | level (log10) ([3]; 6700 nM) | level (log10) ([3]; 20000 nM) | level (log10) ([3]; 60000 nM) | level (log10) [4] | level (log10) [5] | level (log10) (Tetrafluorosuccinic acid; 6700 nM) | level (log10) (Tetrafluorosuccinic acid; 20000 nM) | level (log10) (Tetrafluorosuccinic acid; 60000 nM) | level (log10) ([6]; 6700 nM) | level (log10) ([6]; 20000 nM) | level (log10) ([6]; 60000 nM) | level (log10) ([7]; 6700 nM) | level (log10) ([7]; 20000 nM) | level (log10) ([7]; 60000 nM)
MyoF:MMP-1 | -0.0085 ± 0.039 | -0.0145 ± 0.021 | 0.02 ± 0.044 | 0.469 | -0.001 ± 0.054 | 0.0505 ± 0.0064 | 0.27 ± 0.033 | 0.0315 ± 0.011 | -0.0175 ± 0.011 | -0.006 ± 0.023 | 0.0025 ± 0.0021 | 0.0535 ± 0.059 | 0.008 ± 0.0042 | 0.008 ± 0.0099 | 0.0755 ± 0.052 | -0.0215 ± 0.023 | -0.0075 ± 0.0092 | 0.0165 ± 0.047
MyoF:PAI-I | -0.0045 ± 0.018 | -0.0035 ± 0.00071 | 0.008 ± 0.0042 | -0.053 | -0.0225 ± 0.0078 | -0.0345 ± 0.047 | -0.045 ± 0.0099 | -0.0075 ± 0.021 | -0.004 ± 0.018 | 0.009 ± 0.0057 | 0.01 ± 0.017 | 0.004 ± 0.014 | -0.0305 ± 0.0092 | -0.0115 ± 0.0064 | 0.0005 ± 0.013 | -0.001 ± 0.0085 | 0.008 ± 0.0085 | 0.015 ± 0.0014
MyoF:SRB | -0.0045 ± 0.0035 | -0.001 ± 0.0014 | 0.005 ± 0.0042 | -0.209 | -0.0055 ± 0.0078 | -0.016 ± 0.0042 | -0.0725 ± 0.019 | -0.017 ± 0.0014 | -0.0005 ± 0.015 | -0.0035 ± 0.0035 | -0.0135 ± 0.0021 | -0.01 ± 0.0014 | -0.0075 ± 0.011 | -0.004 ± 0.0071 | -0.007 ± 0.0057 | -0.005 ± 0.016 | -0.0005 ± 0.0021 | 0.0035 ± 0.011
MyoF:TIMP-1 | -0.0325 ± 0.032 | -0.05 ± 0.055 | -0.076 ± 0.0028 | -0.047 | -0.0205 ± 0.0078 | -0.015 ± 0.0085 | -0.008 ± 0.03 | -0.0115 ± 0.046 | -0.0435 ± 0.025 | -0.0045 ± 0.022 | -0.0215 ± 0.04 | -0.026 ± 0.069 | -0.035 ± 0.017 | 0.013 ± 0.0042 | 0.028 ± 0.023 | 0.017 ± 0.028 | 0.0135 ± 0.025 | 0.0075 ± 0.0064
MyoF:alpha-SM Actin | 0.0075 ± 0.019 | 0 ± 0.011 | -0.012 ± 0.025 | -0.486 | -0.041 ± 0.0014 | -0.075 ± 0.011 | -0.182 ± 0.028 | -0.0885 ± 0.061 | -0.021 ± 0.024 | 0.0065 ± 0.025 | -0.0165 ± 0.015 | -0.0275 ± 0.037 | 0.037 ± 0.079 | 0.0415 ± 0.067 | 0.0575 ± 0.063 | -0.0195 ± 0.0078 | -0.0025 ± 0.0035 | -0.002 ± 0.011
MyoF:bFGF | -0.004 ± 0.0042 | -0.0155 ± 0.011 | -0.006 ± 0.0028 | -0.127 | 0.012 ± 0.0057 | 0.0155 ± 0.021 | 0.027 ± 0.0014 | -0.034 ± 0.017 | 0.002 ± 0.018 | 0.0005 ± 0.0021 | 0.0095 ± 0.0078 | -0.0045 ± 0.029 | -0.0415 ± 0.011 | -0.0285 ± 0.00071 | -0.0255 ± 0.021 | 0.007 ± 0.0099 | -0.01 ± 0.0085 | 0.007 ± 0.024
lMphg:CCL2/MCP-1 | -0.01 ± 0.023 | 0.0005 ± 0.011 | 0.018 ± 0.035 | -0.029 | -0.009 ± 0.0099 | -0.025 ± 0.021 | -0.041 ± 0.055 | 0.0035 ± 0.016 | 0.0165 ± 0.019 | -0.03 ± 0.016 | -0.0195 ± 0.012 | 0.0005 ± 0.042 | -0.004 ± 0.0071 | 0.01 ± 0.0042 | -0.0105 ± 0.005 | -0.0335 ± 0.028 | -0.012 ± 0.0099 | -0.0115 ± 0.028
lMphg:CCL3/MIP-1alpha | -0.03 ± 0.021 | -0.035 ± 0.024 | -0.0245 ± 0.018 | -0.016 | 0.015 | 0.012 ± 0.023 | 0.061 ± 0.0028 | -0.018 ± 0.0014 | 0.079 ± 0.011 | -0.0145 ± 0.025 | -0.0145 ± 0.00071 | -0.001 ± 0.023 | 0.035 ± 0.044 | 0.019 ± 0.028 | 0.0315 ± 0.019 | -0.0095 ± 0.0092 | -0.0355 ± 0.044 | -0.0065 ± 0.012
lMphg:CD40 | -0.0235 ± 0.044 | -0.0135 ± 0.012 | -0.0265 ± 0.032 | -0.029 | -0.0205 ± 0.005 | -0.022 ± 0.018 | -0.032 ± 0.021 | -0.037 ± 0.018 | -0.0275 ± 0.0035 | -0.0125 ± 0.015 | -0.011 ± 0.0014 | 0.009 ± 0.014 | -0.0155 ± 0.0021 | -0.0165 ± 0.00071 | -0.012 ± 0.041 | 0.0055 ± 0.011 | -0.005 ± 0.016 | -0.0195 ± 0.0078
